target: T1, 11β-HSD (Homo sapiens, UniProt P28845); assay: in vitro 11β-HSD Assay (human microsomes, CISBIO Cortisol kit); format: biochemical; settings: 160 nM cortisone, 200 μM NADPH, 2 h at 37° C.
T1 construct: from tissue
Description: Protocol for in vitro 11β-HSD Assay
CISBIO Cortisol kit #62CO2PEB
Assay Buffer: (water based) used for Enzyme, Compounds and Microsomes: 20 mM Tris, 5 mM EDTA, and pH 6.0.
Enzyme Buffer: 333 μM NADPH (FAC 200 μM) and 266 nM Cortisone (FAC 160 nM).
1) Test compounds (10 mM stock in 100% DMSO) were diluted in Assay Buffer (see below) with 1% DMSO FAC and placed into the 96-well plate. Test compounds were typically tested over 10 concentrations (30 μM-0.3 nM).
2) 30 μL Enzyme Buffer, 10 μL Test Compound, 10 μL human microsomes were added to the test compounds and mixed gently by tapping the plate.
3) The plates were incubated for 2 h at 37° C.
4) 25 μL anti Cortisol-K and 25 μL Cortisol d2 were added to the plate and mixed gently by tapping the plate.
5) The plates were incubated at room temperature for 2 h.
6) The plates were read on an Envision model 2120 Perkin-Elmer using emission filters #205 and #217.

T1 sequence (P28845 whole entry): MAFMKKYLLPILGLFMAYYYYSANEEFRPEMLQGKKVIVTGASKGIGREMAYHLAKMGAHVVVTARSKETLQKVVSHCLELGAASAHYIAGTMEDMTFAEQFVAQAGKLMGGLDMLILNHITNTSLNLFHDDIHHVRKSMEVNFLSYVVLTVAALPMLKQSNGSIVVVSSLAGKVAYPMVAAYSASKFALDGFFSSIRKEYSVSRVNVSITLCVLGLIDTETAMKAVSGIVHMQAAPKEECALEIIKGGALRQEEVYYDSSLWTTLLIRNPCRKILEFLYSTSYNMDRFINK

Row | EC50 [nM] | SMILES
1 | < 200 | O=C(NC1C2CC3CC1CC(O)(C3)C2)c1cccc(Oc2ncc(Cl)cc2Cl)c1 (stereo not drawn) [Example 7, 3-(3,5-Dichloro-pyridin-2-yloxy)-N-[(E)-5-hydroxy-adamantan-2-yl]-benzamide]
2 | < 200 | O=C(NC1C2CC3CC1CC(O)(C3)C2)c1cccc(Nc2ccc(Cl)cn2)c1 (stereo not drawn) [Example 8, 3-(5-Chloro-pyridin-2-ylamino)-N-[(E)-5-hydroxy-adamantan-2-yl]-benzamide]
3 | < 500 | Cc1cc(C)nc(Nc2cccc(C(=O)NC3C4CC5CC3CC(O)(C5)C4)c2)n1 (stereo not drawn) [Example 9, 3-(4,6-Dimethyl-pyrimidin-2-ylamino)-N-[(E)-5-hydroxy-adamantan-2-yl]-benzamide]

Second part, the compound before the results:

Row | SMILES | EC50 [nM]
4 | O=C(NC1C2CC3CC1CC(O)(C3)C2)c1cccc(Oc2ccc(Cl)cn2)c1 (stereo not drawn) [Example 1, 3-(5-Chloro-pyridin-2-yloxy)-N-[(E)-5-hydroxy-adamantan-2-yl]-benzamide] | < 200
5 | O=C(NC1C2CC3CC1CC(O)(C3)C2)c1cccc(Oc2ccc(C(F)(F)F)cn2)c1 (stereo not drawn) [Example 2, N-[(E)-5-Hydroxy-adamantan-2-yl]-3-(5-trifluoromethyl-pyridin-2-yloxy)-benzamide] | < 200
6 | O=C(NC1C2CC3CC1CC(O)(C3)C2)c1cccc(Sc2ccc(Cl)cn2)c1 (stereo not drawn) [Example 3, 3-(5-Chloro-pyridin-2-ylsulfanyl)-N-[(E)-5-hydroxy-adamantan-2-yl]-benzamide] | < 200
7 | O=C(NC1C2CC3CC1CC(O)(C3)C2)c1cccc([S+]([O-])c2ccc(Cl)cn2)c1 (stereo not drawn) [Example 4, 3-(5-Chloro-pyridine-2-sulfinyl)-N-[(E)-5-hydroxy-adamantan-2-yl]-benzamide] | < 500
8 | O=C(NC1C2CC3CC1CC(O)(C3)C2)c1cccc(S(=O)(=O)c2ccc(Cl)cn2)c1 (stereo not drawn) [Example 5, 3-(5-Chloro-pyridine-2-sulfonyl)-N-[(E)-5-hydroxy-adamantan-2-yl]-benzamide] | < 3000
9 | O=C(NC1C2CC3CC1CC(O)(C3)C2)c1cccc(Oc2ccc(Cl)nn2)c1 (stereo not drawn) [Example 6, 3-(6-Chloro-pyridazin-3-yloxy)-N-[(E)-5-hydroxy-adamantan-2-yl]-benzamide] | < 200
